Test results published in patent US7429670B2 (The Trustees of Columbia University in the City of New York, priority 2003, dated 2008).
Values belong to the substance of their own block, whether it stands above or below them.

Target: T1, human homomeric α1 GlyR (Homo sapiens, UniProt P23415)
T1 construct: expressed in transfected cells
T1 sequence (P23415 29-457): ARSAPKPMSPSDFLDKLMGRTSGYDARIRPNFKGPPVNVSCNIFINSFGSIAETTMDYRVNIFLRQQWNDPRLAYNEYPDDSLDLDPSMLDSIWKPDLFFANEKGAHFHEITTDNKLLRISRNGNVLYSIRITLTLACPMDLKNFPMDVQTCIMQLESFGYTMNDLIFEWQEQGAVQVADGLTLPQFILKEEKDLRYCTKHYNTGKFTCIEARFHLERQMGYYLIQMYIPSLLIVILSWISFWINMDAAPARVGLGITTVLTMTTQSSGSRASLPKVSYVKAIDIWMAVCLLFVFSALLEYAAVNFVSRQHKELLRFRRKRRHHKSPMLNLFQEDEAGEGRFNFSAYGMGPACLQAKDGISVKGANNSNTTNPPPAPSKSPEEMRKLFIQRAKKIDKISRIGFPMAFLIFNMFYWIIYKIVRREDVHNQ
Assay: Functional glycine receptor assay (FLIPR Membrane Potential Assay)
Format: cell-based
Parameters: antagonist activity at GlyR (in words): dose or concentration left out as unconfirmed
Conditions: for % inhibition: 100 μM test compound, α1 GlyR-HEK293 cells; for inhibition of the glycine responses: derivatives at a concentration of 100 mM, 100 mM glycine; for antagonist activity at GlyR (in words): derivatives as printed

[1] = 100 μM glycine-induced response, Table 2
[2] = 100 μM glycine-induced response, Table 3
[3] = 100 μM glycine-induced response, Table 4
[4] = response induced by 100 μM glycine, Table 5

Substance: 1-(Morpholine-4-carbonyloxy)-10-(4-methoxy-benzyloxy)-GC [Compound 51]
% inhibition [1]: NI (Inhibition below 20% is characterized as no inhibition (NI))

Substance: 1-(Morpholine-4-carbonyloxy)-10-benzyloxy-GC [Compound 41]
% inhibition [1]: NI (Inhibition below 20% is characterized as no inhibition (NI))

Substance: 1-(Morpholine-4-carbonyloxy)-GC [Compound 59]
% inhibition [2]: NI (Inhibition below 20% is characterized as no inhibition (NI))

Substance: 1-(Piperidine-carbonyloxy)-10-(4-methoxy-benzyloxy)-GC [Compound 52]
% inhibition [1]: NI (Inhibition below 20% is characterized as no inhibition (NI))

Substance: 1-(Piperidine-carbonyloxy)-10-benzyloxy-GC [Compound 42]
% inhibition [1]: 31%

Substance: 1-(Piperidine-carbonyloxy)-GC [Compound 60]
% inhibition [2]: 33%

Substance: 1-Methylcarbamoyloxy-10-(4-methoxy-benzyloxy)-GC [Compound 49]
% inhibition [1]: NI (Inhibition below 20% is characterized as no inhibition (NI))

Substance: 1-Methylcarbamoyloxy-10-benzyloxy-GC [Compound 39]
% inhibition [1]: NI (Inhibition below 20% is characterized as no inhibition (NI))

% inhibition [2]: 76%
inhibition of the glycine responses: ca. 70%
Substance: 1-Methylcarbamoyloxy-GC [Compound 57]

% inhibition [1]: 33%
Substance: 1-tert-Butylcarbamoyloxy-10-(4-methoxy-benzyloxy)-GC [Compound 50]

% inhibition [1]: 42%
Substance: 1-tert-Butylcarbamoyloxy-10-benzyloxy-GC [Compound 40]

% inhibition [2]: 71%
inhibition of the glycine responses: ca. 70%
Substance: 1-tert-Butylcarbamoyloxy-GC [Compound 58]

Substance: 7-(Morpholine-4-carbonyloxy)-10-(4-methoxy-benzyloxy)-GC [Compound 46]
% inhibition [1]: NI (Inhibition below 20% is characterized as no inhibition (NI))

Substance: 7-(Morpholine-4-carbonyloxy)-10-benzyloxy-GC [Compound 36]
% inhibition [1]: NI (Inhibition below 20% is characterized as no inhibition (NI))

Substance: 7-(Morpholine-4-carbonyloxy)-GC [Compound 55]
% inhibition [2]: 44%

Substance: 7-(Piperidine-carbonyloxy)-10-(4-methoxy-benzyloxy)-GC [Compound 47]
% inhibition [1]: 29%

Substance: 7-(Piperidine-carbonyloxy)-10-benzyloxy-GC [Compound 37]
% inhibition [1]: NI (Inhibition below 20% is characterized as no inhibition (NI))

Substance: 7-(Piperidine-carbonyloxy)-GC [Compound 56]
% inhibition [2]: 34%

Substance: 7-Methylcarbamoyloxy-10-(4-methoxy-benzyloxy)-GC [Compound 44]
% inhibition [1]: NI (Inhibition below 20% is characterized as no inhibition (NI))

Substance: 7-Methylcarbamoyloxy-10-benzyloxy-GC [Compound 34]
% inhibition [1]: NI (Inhibition below 20% is characterized as no inhibition (NI))

Substance: 7-Methylcarbamoyloxy-GC [Compound 53]
% inhibition [2]: NI (Inhibition below 20% is characterized as no inhibition (NI))

% inhibition [1]: 39%
Substance: 7-tert-Butylcarbamoyloxy-10-(4-methoxy-benzyloxy)-GC [Compound 45]

% inhibition [1]: 29%
Substance: 7-tert-Butylcarbamoyloxy-10-benzyloxy-GC [Compound 35]

Substance: 7-tert-Butylcarbamoyloxy-GC [Compound 54]
% inhibition [2]: NI (Inhibition below 20% is characterized as no inhibition (NI))

% inhibition [3]: 75%
inhibition of the glycine responses: 75%
Substance: 10-(2-Pyridinyl-methoxy)-GC [Compound 25]

% inhibition [3]: 51%
Substance: 10-(2-Pyridinyl-methoxy)-GC-7-benzoate [Compound 29]

% inhibition [3]: 52%
Substance: 10-(4-Methoxy-benzyloxy)-GC [Compound 24]

Substance: 10-(4-Methoxy-benzyloxy)-GC-1-benzoate [Compound 28]
% inhibition [3]: NI (Inhibition below 20% is characterized as no inhibition (NI))

% inhibition [3]: 35%
Substance: 10-(4-Methoxy-benzyloxy)-GC-7-benzoate [Compound 26]

% inhibition [4]: 36%
Substance: 10-(4-Methoxy-benzyloxy)-isoGC-1,6-bisacetate [Compound 20]

% inhibition [4]: 49%
Substance: 10-(4-Methoxy-benzyloxy)-isoGC-6-benzoate [Compound 27]

Substance: 10-Benzyloxy-GC [Compound 16]
% inhibition [3]: 59%

% inhibition [3]: 60%
Substance: 10-Benzyloxy-GC-1-benzoate [Compound 23]

% inhibition [3]: 45%
Substance: 10-Benzyloxy-GC-7-benzoate [Compound 21]

% inhibition [4]: 21%
Substance: 10-Benzyloxy-isoGC-1,6-bisacetate [Compound 19]

% inhibition [4]: 42%
Substance: 10-Benzyloxy-isoGC-1,6-bisbenzoate [Compound 22]

inhibition of glycine responses (30 uM concentration of test compound): 39%
% inhibition [4]: 90%
inhibition of the glycine responses: 90%
Substance: 10-Benzyloxy-isoGC-6-benzoate [Compound 17]

Substance: GC-1-benzoate [Compound 32]
% inhibition [3]: NI (Inhibition below 20% is characterized as no inhibition (NI))
antagonist activity at GlyR (in words): complete loss in activity

Substance: GC-7-benzoate [Compound 30]
% inhibition [3]: NI (Inhibition below 20% is characterized as no inhibition (NI))
antagonist activity at GlyR (in words): complete loss in activity

% inhibition [4]: 63%
Substance: IsoGC-6-benzoate [Compound 31]
